Blank lines part the entries; values can stand above or below the compound they belong to.
Columns and labels:
[1] = test system: rat hepatoma cell insulin signaling pathways (McA-RH7777); assay: Tissue culture and insulin signaling assay; type: cell-based; details: 100 nM for 10 min, McA-RH7777 cells, in triplicate
Protocol: McA-RH7777, rat hepatoma cells were grown in DMEM media with 20% fetal bovine serum. Cells were incubated in serum-free medium for 5 hours and treated with insulin and insulin-oligonucleotide conjugate at the concentration of 100 nM for 10 min. Cell lysates were prepared in SDS lysis buffer (2% SDS, 62.5 mM Tris HCL (pH 6.8), 10% glycerol, 50 mM DTT, 0.01% Bromophenol Blue). All antibodies were purchased from Cell Signaling Technology (Danvers, Mass.).

[2] = test system: matrix-displayed aptamer (SEQ ID NO:11) on Biacore SA chip; assay: Biacore SPR: loading and release from aptamer-coated SA chip; type: binding
Protocol: For SPR experiments, Biacore X system and commercially available Biacore SA sensor chips from Biacore AB (Uppsala, Sweden) were used.
A 1 μM solution of aptamer aptamer 5′-/5BioTEG//iSp18//iSp18/ATCTCGGTCTCGGGACGACAGGATTTTCCTCAATGAAGTGGGTCGTCCCGAGA (SEQ ID NO:11) in 10 mM HEPES at pH 7.4, 150 mM NaCl, and 3 mM EDTA (in HBS-EP) was applied to one of the SA sensor chip's two channels for 20 min at 4 μL min^−1, followed by a 120 sec wash with 4 M urea/15 mM EDTA to remove any nonspecifically adsorbed material. The aptamer used for these SPR experiments was shorter by two bases relative to the aptamer used in the microsphere experiments (see SEQ ID NO:7). According to the Biacore SA chip literature, the matrix was a highly irregular 3D dextran hydrogel recognition matrix with a height of approximately 100-200 nm and an uneven distribution of streptavidin. The matrix was coated with biotinylated aptamer containing two 18-atom hexaethylene glycol spacers between the biotin and the oligonucleotide. On the basis of changes in SPR response, the aptamer was coated at saturation densities of 0.12-to-0.15 pmol mm^−2, an estimated average inter-aptamer distance of 10-to-11 nm (based on a 100 nm height for the dextran layer. 1.2-to-1.6 molecules of insulin-conjugate bound per aptamer on initial loading, with oligonucleotide binding (i.e. no insulin attached) at 1.2 per aptamer. Where possible, the channel with no aptamer or insulin-conjugate/oligonucleotide deposited acted as a blank for correction of system influence. When the additional channel was not able to be used as a blank, data for the first 10 minutes of any buffer change was omitted due to artifacts occurring in this time period caused by washes with the new buffer.
Matrix-Aptamer Hybridization with (5). (5) 1 μM in NaCl (140 mM), KCl (5 mM), and MgCl2 (1.2 mM), buffered to pH 7.4 with Tris (20 mM), was dispensed on the aptamer displaying channel at 1 μL min^−1 until saturation (80 min), with the other channel used as a system influence control when possible. Monitoring of conjugate (5) release was taken 15 minutes after the end of the conjugate (5) application time to allow for weak non-specifically bound conjugate to be washed from the surface. Conjugate dissociation in real time was measured through the decrease in mass, again using the formula 1000 R.U.=[…]. In some experiments, instrumental instabilities were observed as occasional spikes in sensorgrams during long-time monitoring.
Release of the insulin-conjugate (i→ii in FIG. 1A) was studied in two different systems: 1) release from a dextran matrix (SA-Chip, Biacore), under continuous flow, with surface plasmon resonance (SPR) monitoring, and 2) release from the surface of non-porous beads followed by fluorescence monitoring. […]

[3] = test system: aptamer (SEQ ID NO:7) functionalized microspheres loaded with conjugate (5); assay: Triggered release of insulin conjugate (5) from aptamer coated microspheres, fluorescence monitoring
Protocol: (for a biotin binding site:aptamer ratio of 5:1) Streptavidin functionalized magnetic microspheres (Bangs Laboratories), 2 mL, were washed with HEPES 10 mM/NaCl 150 mM/pH 7.4 buffer 3×2 mL, using a magnet to separate out the microspheres from the washings. The microspheres were suspended in 1 mL of the same buffer. The aptamer 5′-/5BioTEG//iSp18//iSp18/ATCTCGGTCTCGGGACGACAGGATTTTCCTCAATGAAGTGGGTCGTCCCGAGACC-3′ (SEQ ID NO:7) (IDT, Coralville, Iowa, USA), 2 nmoles, was dissolved in 10 mL of the buffer and added slowly drop-wise to the microsphere suspension under continuous shaking. The mixture was incubated for one hour and then washed 3×, once with a 1 mL volume then twice with 200 μL volumes after transfer to a 1.5 mL microcentrifuge tube. The washed microspheres were resuspended in 1 mL of buffer and stored at 4° C. until use. For a biotin binding site:aptamer ratio of 1:1, i.e. saturated, 800 μL of microspheres were prepared as above, with the exception that they were resuspended in 400 uL of buffer with 8 nmoles of aptamer then added.
Aptamer functionalized microspheres (200 uL containing 0.4 nmoles of aptamer were washed 1×200 μL of binding buffer and then resuspended in 100 μl of the same buffer. The insulin-PEO12-oligonucleotide conjugate in 0.5 nmoles, in 37 μL of water, was added to the suspension and incubated, with constant mixing by inversion, overnight at room temperature, protected from light.
All release experiments were carried out in water containing NaCl (140 mM), KCl (5 mM), and MgCl2 (1.2 mM), buffered to pH 7.4 with Tris (20 mM). Streptavidin coated microspheres were mixed with biotinylated aptamer to obtain aptamer coated microspheres, see above for detailed preparation. […] On addition of six micromolar quinine at three and one half hours an additional pulse with analogous characteristics of the first pulse was observed. A third analogous pulse can be triggered using eighteen micromolar quinine. […]

[4] = molecular target: cocaine aptamer MNS-1; assay: Fluorescence screening of FDA approved drugs against fluorescein-labeled aptamer MNS-1 with DABCYL quencher oligonucleotide 1-Q; type: binding; details: 20 mM Tris-HCl pH 7.4, 50 nM MNS-1, 150 nM 1-Q, 30 min incubation
Protocol: Oligonucleotides MNS-1 and 1-Q were custom-made and HPLC purified by Integrated DNA Technologies, Inc (Coralville, Iowa, USA) and were used as received. The base sequence for MNS-1 is: 5′-fluorescein-ATCTCGGGACGACAGGATTTTCCTCAATGAAGTGGGTCGTCCC (SEQ ID NO:4), and 1-Q is: 5′-GTC GTC CCG AGA T-dabcyl (SEQ ID NO:5). All compounds (except cocaine) were purchased from Sigma-Aldrich Co. (St. Louis, Mo., USA). All measurements were performed in 20 mM Tris-HCl pH 7.4, 140 mM NaCl, 5 mM KCl, 2 mM MgCl2. Mixture of MNS-1 and 1-Q was incubated for 5 min at room temperature, then a series of standard dilutions of all compounds were added to the mixture solutions of MNS-1 and 1-Q to final concentrations of 50 nM and 150 nM respectively. Measurements were performed after an incubation time of 30 min. The measurements were performed on a Perkin-Elmer Victor II microplate reader (Wallac, Finland) with a 485-nm excitation filter and a 535-nm emission filter. […]

[5] = test system: Spiegelmer (L-MNS); assay: Spiegelmer (L-MNS) binding of quinine; details: same conditions as MNS-1/1-Q
Source text: ) binding of quinine. […] from ChemGenes (Wilmington, Mass.). Note that the sequence and label are same as mns-1, 1-Q, measurement conditions and concentrations were also the same (see FIG. 4, and Materials and Methods section in Example section 6). […] Oligonucleotides MNS-1 and 1-Q were custom-made and HPLC purified by Integrated DNA Technologies, Inc (Coralville, Iowa, USA) and were used as received. The base sequence for MNS-1 is: 5'-fluorescein-[NT] ID NO:4), and 1-Q is: 5'-[NT]-dabcyl (SEQ ID NO:5). […] (St. Louis, Mo., USA). All measurements were performed in 20 mM Tris-HCl pH 7.4, 140 mM NaCl, 5 mM KCl, 2 mM MgCl2. […] Measurements were performed after an incubation time of 30 min. The measurements were performed on a Perkin-Elmer Victor II microplate reader (Wallac, Finland) with a 485-nm excitation filter and a 535-nm emission filter.

Compound: Fluorescein-5′-GTC GTC CCG AGA CCG AGA T-3′-L1-Insulin [insulin conjugate]
activity of insulin conjugate on insulin signaling [1]: full activity | line of best fit slope of initial rate data for dissociation ([2]; SA chip (Biacore), fitted from 15 to 25 minutes): −0.1399 fmol mm^−2 min^−1 | observed initial dissociation rate ([2]; SA chip (Biacore), no quinine): 0.14 fmol mm^−2 min^−1

Kd [4]: ~600 nM | binding to the spiegelmer of the aptamer [5]: bound to the spiegelmer of the aptamer
Compound: C=C[C@H]1C[N@@]2CC[C@H]1C[C@H]2[C@H](O)c1ccnc2ccc(OC)cc12 [quinine]
triggered release of (5) from microspheres ([3]; two micromolar quinine, pH 7.4): a pulse of (5) was released | insulin-conjugate boluses by escalating quinine concentrations ([2]; 0, 2 and 8 μM quinine, or 1.5, 6 and 18 μM after pre-washing the chip, SPR): desired profile with three postprandial boluses

Compound: C[C@]12CCC(=O)C=C1CC[C@@H]1[C@@H]2[C@@H](O)C[C@@]2(C)[C@H]1CC[C@]2(O)C(=O)COC(=O)CCC(=O)O [hydrocortisone-21-hemisuccinate (HHS), hydrocortisone-21-hemisuccinate]
triggering of insulin conjugate release from microspheres ([3]; 250 μM, soaking for a total of 60 minutes): sluggishly | triggering of insulin conjugate release from microspheres ([3]; higher concentrations than 250 μM): significant release of the conjugate

Compound: 5′-TCTCGGGACGACCCACTTCATTG-3′ (TCTCGGGACGACCCACTTCATTG; listed as DNA, chemistry not given here) [oligonucleotide inhibitor]
blocking of insulin-conjugate release in the presence of quinine ([2]; 1 μM inhibitor, SPR): block the release of the insulin-conjugate

— patent publication US9243024B2, “Aptamer-mediated drug release” (priority 2009, dated 2016)
